MIC data for 19 molecules are collected here from ChEMBL document CHEMBL1144287, “Synthesis and antifungal activity of noble 5-arylamino- and 6-arylthio-4,7-dioxobenzoselenazoles” (2005).

Holding throughout (type): functional
One assay concerns Candida albicans. As to the kind of experiment: Minimum inhibitory concentration was measured against Candida albicans ATCC 10231 using modified Sabouraud dextrose broth; (a).
The subject of the next assay is Pichia kudriavzevii. The assay can be described thus: Minimum inhibitory concentration was measured against Candida krusei ATCC 749 using modified Sabouraud dextrose broth; (a).
Another assay concerns Aspergillus flavus. The assay can be described thus: Minimum inhibitory concentration was measured against Aspergillus flavus KCCM 11899 using modified Sabouraud dextrose broth; (a).
The subject of another assay is Candida tropicalis. The assay can be described thus: Minimum inhibitory concentration was measured against Candida tropicalis ATCC 28775 using modified Sabouraud dextrose broth; (a).
The next assay has as its system Aspergillus niger. The assay can be described thus: Minimum inhibitory concentration was measured against Aspergillus niger KCTC 1231 using modified Sabouraud dextrose broth; (a).

Values after ≈ are worked out from the molar mass of the structure shown.

As usually defined, the MIC is the smallest concentration in the dilution series that meets the test's criterion for growth inhibition. Low values mean a more susceptible organism, high ones a less susceptible organism. For `COC1=C(Sc2ccc(C)cc2)C(=O)c2[se]c(C)nc2C1=O`, the MIC against Candida albicans was 12.5 µg/mL (≈ 33 µM); in the assay with Pichia kudriavzevii it was 25 µg/mL (≈ 66.1 µM); with Aspergillus flavus, 50 µg/mL (≈ 132 µM); against Candida tropicalis it was 6.3 µg/mL (≈ 16.7 µM); in the assay with Aspergillus niger it was 25 µg/mL (≈ 66.1 µM).
`COC1=CC(=O)c2[se]c(C)nc2C1=O`: the MIC in the assay with Candida albicans is 50 µg/mL (≈ 195 µM); in the assay with Pichia kudriavzevii it was 25 µg/mL (≈ 97.6 µM); in the assay on Aspergillus flavus, 50 µg/mL (≈ 195 µM); against Candida tropicalis, 12.5 µg/mL (≈ 48.8 µM); against Aspergillus niger it was 25 µg/mL (≈ 97.6 µM).
As to `COC1=C(Sc2ccc(OC)cc2)C(=O)c2[se]c(C)nc2C1=O`, the MIC with Candida albicans worked out at 25 µg/mL (≈ 63.4 µM); against Pichia kudriavzevii it was 12.5 µg/mL (≈ 31.7 µM); with Aspergillus flavus, 25 µg/mL (≈ 63.4 µM); in the assay with Candida tropicalis, 12.5 µg/mL (≈ 31.7 µM); in the assay on Aspergillus niger it was 12.5 µg/mL (≈ 31.7 µM).
As to `COc1ccc(NC2=CC(=O)c3[se]c(C)nc3C2=O)cc1`, the minimal inhibitory concentration (MIC) against Candida albicans, in the assay with Pichia kudriavzevii, in the assay with Aspergillus flavus, against Candida tropicalis and in the assay on Aspergillus niger was 12.5 µg/mL (≈ 36 µM) in each case.
Regarding `COC1=C(Sc2ccc(F)cc2)C(=O)c2[se]c(C)nc2C1=O`, the MIC against Candida albicans amounted to 25 µg/mL (≈ 65.4 µM); against Pichia kudriavzevii it was 25 µg/mL (≈ 65.4 µM); in the assay with Aspergillus flavus, 50 µg/mL (≈ 131 µM); with Candida tropicalis it was 3.2 µg/mL (≈ 8.37 µM); with Aspergillus niger it was 50 µg/mL (≈ 131 µM).
As to `COC1=C(Sc2ccc(F)c(F)c2)C(=O)c2[se]c(C)nc2C1=O`, the MIC in the assay on Candida albicans turned out to be 12.5 µg/mL (≈ 31.2 µM); with Pichia kudriavzevii, 6.3 µg/mL (≈ 15.7 µM); against Aspergillus flavus, 25 µg/mL (≈ 62.5 µM); against Candida tropicalis it was 6.3 µg/mL (≈ 15.7 µM); against Aspergillus niger, 25 µg/mL (≈ 62.5 µM).
For `COC1=C(Sc2ccc([N+](=O)[O-])cc2)C(=O)c2[se]c(C)nc2C1=O`, the MIC against Candida albicans is 3.2 µg/mL (≈ 7.82 µM); in the assay with Pichia kudriavzevii it was 25 µg/mL (≈ 61.1 µM); against Aspergillus flavus, 12.5 µg/mL (≈ 30.5 µM); with Candida tropicalis it was 1.6 µg/mL (≈ 3.91 µM); against Aspergillus niger, 50 µg/mL (≈ 122 µM).
The like results for `COC1=C(Sc2ccc(Cl)cc2)C(=O)c2[se]c(C)nc2C1=O` were, in that order, 25 µg/mL (≈ 62.7 µM), 25 µg/mL (≈ 62.7 µM), 25 µg/mL (≈ 62.7 µM), 12.5 µg/mL (≈ 31.3 µM) and 25 µg/mL (≈ 62.7 µM).
The like results for `COC1=C(Sc2ccccc2)C(=O)c2[se]c(C)nc2C1=O` were, in that order, 6.3 µg/mL (≈ 17.3 µM), 6.3 µg/mL (≈ 17.3 µM), 12.5 µg/mL (≈ 34.3 µM), 6.3 µg/mL (≈ 17.3 µM) and 12.5 µg/mL (≈ 34.3 µM).
For the molecule `Cc1nc2c([se]1)C(=O)C=C(Nc1ccccc1)C2=O`, the minimum inhibitory concentration (MIC) with Candida albicans, in the assay with Pichia kudriavzevii, against Aspergillus flavus, against Candida tropicalis and in the assay with Aspergillus niger was 6.3 µg/mL (≈ 19.9 µM) throughout.
Turning to `Cc1nc2c([se]1)C(=O)C=C(Nc1ccc(F)cc1)C2=O`, the MIC in the assay with Candida albicans came out at 6.3 µg/mL (≈ 18.8 µM); against Pichia kudriavzevii, 6.3 µg/mL (≈ 18.8 µM); against Aspergillus flavus, 12.5 µg/mL (≈ 37.3 µM); against Candida tropicalis, 6.3 µg/mL (≈ 18.8 µM); against Aspergillus niger it was 6.3 µg/mL (≈ 18.8 µM).
Regarding `Cc1nc2c([se]1)C(=O)C=C(Nc1ccc(Cl)cc1)C2=O`, the MIC in the assay with Candida albicans, in the assay on Pichia kudriavzevii, against Aspergillus flavus, against Candida tropicalis and in the assay with Aspergillus niger was 12.5 µg/mL (≈ 35.5 µM) in each case.
`Cc1nc2c([se]1)C(=O)C=C(Nc1ccc(Br)cc1)C2=O`: the MIC against Candida albicans stood at 12.5 µg/mL (≈ 31.6 µM); against Pichia kudriavzevii, 50 µg/mL (≈ 126 µM); in the assay with Aspergillus flavus, 50 µg/mL (≈ 126 µM); against Candida tropicalis, 50 µg/mL (≈ 126 µM); with Aspergillus niger, 25 µg/mL (≈ 63.1 µM).
As for `Cc1nc2c([se]1)C(=O)C=C(Nc1ccc(C(F)(F)F)cc1)C2=O`, the MIC against Candida albicans was determined as 25 µg/mL (≈ 64.9 µM); against Pichia kudriavzevii it was 3.2 µg/mL (≈ 8.31 µM); against Aspergillus flavus it was 25 µg/mL (≈ 64.9 µM); against Candida tropicalis it was 3.2 µg/mL (≈ 8.31 µM); in the assay with Aspergillus niger, 12.5 µg/mL (≈ 32.5 µM).
`Cc1nc2c([se]1)C(=O)C=C(Nc1cccc(F)c1)C2=O`: the minimum inhibitory concentration (MIC) with Candida albicans was 12.5 µg/mL (≈ 37.3 µM); in the assay on Pichia kudriavzevii it was 6.3 µg/mL (≈ 18.8 µM); against Aspergillus flavus, 12.5 µg/mL (≈ 37.3 µM); in the assay with Candida tropicalis it was 3.2 µg/mL (≈ 9.55 µM); in the assay on Aspergillus niger, 12.5 µg/mL (≈ 37.3 µM).
Take `Cc1nc2c([se]1)C(=O)C=C(Nc1cc(Cl)cc(Cl)c1)C2=O`: the MIC against Candida albicans turned out to be 1.6 µg/mL (≈ 4.14 µM); in the assay with Pichia kudriavzevii, 25 µg/mL (≈ 64.8 µM); in the assay with Aspergillus flavus, 12.5 µg/mL (≈ 32.4 µM); with Candida tropicalis, 3.2 µg/mL (≈ 8.29 µM); against Aspergillus niger, 12.5 µg/mL (≈ 32.4 µM).
As for `Cc1nc2c([se]1)C(=O)C=C(Nc1ccc(I)cc1)C2=O`, the MIC against Candida albicans, against Pichia kudriavzevii, with Aspergillus flavus, against Candida tropicalis and in the assay with Aspergillus niger was 25 µg/mL (≈ 56.4 µM) throughout.
For `Cc1ccc(NC2=CC(=O)c3[se]c(C)nc3C2=O)cc1`, the MIC against Candida albicans is 6.3 µg/mL (≈ 19 µM); in the assay on Pichia kudriavzevii, 25 µg/mL (≈ 75.5 µM); in the assay with Aspergillus flavus it was 12.5 µg/mL (≈ 37.7 µM); in the assay on Candida tropicalis it was 25 µg/mL (≈ 75.5 µM); against Aspergillus niger, 6.3 µg/mL (≈ 19 µM).
Turning to `Nc1nc(=O)[nH]cc1F` [FLUCYTOSINE], the MIC in the assay with Candida albicans was 12.5 µg/mL (≈ 96.8 µM); in the assay on Pichia kudriavzevii, 50 µg/mL (≈ 387 µM); in the assay on Aspergillus flavus, 50 µg/mL (≈ 387 µM); with Candida tropicalis, 12.5 µg/mL (≈ 96.8 µM); in the assay on Aspergillus niger it was 12.5 µg/mL (≈ 96.8 µM).
